Assays:
Format in all cases: in vivo, Wistar rat
CD34 = test: Quantitative PCR of dorsal tissues after subcutaneous administration (CD34); details: 20 μL per location into rat dorsal part; vs control without administration; FIG. 15
Method: (§1) 5.) CD34, Rattus norvegicus: CD34 molecule (Cd34), mRNA 1,161 bp NM 001107202.2 GI: 169790781 Next, a change in gene expression in tissues was examined. Three regions were set between the head and the tail of the dorsal part of a 12-week-old Wistar rat (male), and each region was divided between the left and the right of the backbone into two regions to set a total of six regions on the dorsal part. Milk or palmitic acid was injected in an amount of 20 μL per location at two locations in the vicinity of the center of each region. The distance between the two locations was 1 cm. The collected tissue fragments were frozen with liquid nitrogen, and stored at −80° C. […] Analysis of gene expression by quantitative PCR was performed in the following manner: Integrated DNA technologies, Inc (Skokie, Ill., USA) was requested to design and synthesize gene-specific primers and probes, and using PrimeTime Gene Expression Master Mix Reagent (Integrated DNA Technologies, Inc, Skokie, Ill., USA) and Rotor-Gene Q PCR Apparatus (QIAGEN GmbH, Hilden, Germany), PCR analysis was performed twice per gene per specimen to analyze the expression level of a target gene. […]

Cxcr4 = test: Quantitative PCR of dorsal tissues after subcutaneous administration (Cxcr4); details: 20 μL per location into rat dorsal part; vs control without administration; FIG. 15
Method: as §1, with “3.) C—X—C motif chemokine receptor 4 (Cxcr4),” for “5.) CD34,”, “norvegicus:” for “norvegicus: CD34 molecule (Cd34),”, “1,726” for “1,161”, “022205.3” for “001107202.2”, “82617587” for “169790781”

CD68-positive cells = test: Immunohistological staining of rat dorsal skin after injection of fatty acids (CD68); details: 1 mg fatty acid in 20 μL per location
Method: Next, representative fatty acids contained in milk were administered to a 12-week-old Wistar rat at a plurality of locations on the dorsal skin as in Example 1(2) above, and a change in tissues by the administration was observed after the tissues were subjected to immunohistological staining. More specifically, physiological saline was administered in an amount of 20 μL per location, an administration liquid containing 1 mg of a fatty acid was administered in an amount of 20 μL per location, and a change in CD68-positive macrophage stained images and PPAR-γ-positive cell images by the administration was observed. Samples of the Wistar rat were obtained by sampling administration sites (four weeks after administration and eight weeks after administration). FIGS. 10A to 10G show the results. […] At saturated fatty acid injection sites, infiltration of a large number of CD68-positive cells was observed, and fibrillization of normal tissues was observed. Therefore, in FIGS. 10B to 10D, a change in fat tissues was examined at a location which was closest to the administration site and where normal tissues were maintained (non-fibrillization location).

## CCCCCCCCCCCCCCCC(=O)O [palmitic acid]
CD34
  CD34 gene expression in tissues: increase
Cxcr4
  expression level of Cxcr4 in tissues: greatly increased
CD68-positive cells; eight weeks after administration
  number of CD68-positive cells at the administration site: maintained
CD68-positive cells; four weeks after administration, vs physiological saline
  number of CD68-positive cells at the administration site: increased
